Source: publication PMC9563556, “Antibacterial and anti-inflammatory properties of host defense peptides against Staphylococcus aureus” (iScience, 2022)
“Also recorded” adds a separate entry of the source.

Key:
[1] = system: primary human macrophages; experiment: LPS-induced TNF-α and IL-10 release of macrophages (ELISA); assay type: cell-based; conditions: for inhibition of macrophage LPS-mediated activation: 10 ng/mL LPS O111:B4, 24 h, TNF-α and IL-10 by ELISA
Method: Isolated monocytes were seeded in a 24-well plate at a density of 300,000 cells/well, except where otherwise stated. Monocytes were differentiated to macrophages by culture for 7 days in α-Minimum Essential Medium (α-MEM) supplemented with 10% (v/v) hyclone fetal bovine serum (hyFBS), 100 U/mL penicillin- streptomycin (1% p/s), and 40 ng/mL human recombinant M-CSF. Culture media was refreshed after 3-4 days.
Monocytes were seeded in a 96-well plate at a density of 150,000 cells/well. After 7 days differentiation, macrophages were incubated with fresh media containing a range of peptides concentrations alone or in combination with 10 ng/mL LPS O111:B4 from E. coli. After 24 h stimulation, the supernatant was collected to measure LDH levels or TNF-α and IL-10 by ELISA, according to the manufacturer’s instructions. Both LDH and ELISA assays were performed in three independent experiments with measurements in triplicate.

[2] = system: primary human macrophages infected with S. aureus; experiment: Confocal imaging, manual counting of intracellular bacteria ("peptides during infection" model); assay type: cell-based; conditions: 30 min infection, 50 randomly chosen cells
Method: According to the “peptides during infection” model, after 30 min infection cells were harvested and fixed as described for flow cytometry analysis. Cells membranes were stained with 3 μg/mL Alexa Fluor 647-labelled Wheat Germ Agglutinin (WGA) for 10 min at RT, on a shaking plate. Then, samples were transferred to CELLview slide previously coated with poly-L-lysine, and imaged on a Leica TCS SP5 microscope with a HCX PL AP CS 63x/1.40-0.60 OIL objective (Leica Microsystems). For each condition, the number of intracellular bacteria was counted in 50 randomly chosen cells. Images were adjusted for publication using Image J Fiji.

[3] = system: primary human macrophages; experiment: Macrophage phenotype markers CD80 / CD163 by flow cytometry; assay type: cell-based; conditions: 24 h, selected peptide concentrations alone or with LPS, n = 3
Method: After 7 days differentiation, macrophages were incubated with fresh media with LPS, IL-4, and optimal concentrations of peptides alone or in combination with LPS. After 24 h stimulation, macrophages were detached from the culture plate and processed for staining into a 96-well plate. All washing steps were performed with cold 0,1% (w/v) bovine serum albumin (BSA)/PBS and centrifugation at 5 min, 500 x g. A panel of surface molecules was selected, based on previous reports for human macrophage polarization ([Ambarus et al., 2012]). The staining solutions were prepared by diluting the following fluorochrome-conjugated antibodies in PBS with 0,1% BSA and 1% (v/v) heat-inactivated human serum: CD16 (1:50); CD80 (1:50); CD163 (1:50). As a negative control, staining solution without antibodies was used. Cells were incubated with staining solutions for 30 min on ice, in the dark. Markers expression was measured via flow cytometer (FACSVerse, BD) and data analyzed using FlowJo.

[4] = system: intracellular S. aureus in primary human macrophages; experiment: "peptides during differentiation" model, intracellular S. aureus by CFU counting; assay type: cell-based; conditions: 30 min and 24 h, n = 6
Method: (§1) To assess the peptides influence on macrophages antibacterial properties, three different infection models studying intracellular bacteria survival, as outlined in Figures 3A, 5A, and 5D, were adopted. In all models, selected concentrations of peptides were used: 65 μM IDR-1018; 10 μM CATH-2; 10 μM LL-37.
(§2) The first step concerned the “peptides during infection” model, where cells were washed twice before incubation with the peptides for 24 h and subsequently bacteria were directly added to the culture without any washing step. In a subsequent step we assessed the “peptides during differentiation”, where peptides were added to the differentiation media for the first 3 days and removed after the regular media change; cells were washed twice before infection. In the third step we tested “peptides with MSCs”, where macrophages were cultured in presence of MSCs and peptides for 24 h; before infection cells were washed twice. All washing steps, before or after infection, were performed using warm α-MEM.
In all three models described, the same S. aureus infection protocol was applied. An overnight bacterial culture was diluted in α-MEM to reach a final inoculum concentration of 1 x 10^7 CFU/mL, and opsonized in 5% human pooled serum (HPS) for 15 min at 37°C. Opsonized S. aureus was added to the culture at a multiplicity of infection (MOI) = 1, meaning 1 bacterium per eukaryotic cell. To synchronize bacterial uptake, plates were centrifuged for 5 min, 110 x g at RT, and then moved to the incubator at 37°C, 5% CO2 for additional 25 min or 24 h. To study intracellular bacterial survival, after 30 min the cells were washed twice and cultured in media supplemented with 100 μg/mL gentamicin and 20 μg/mL lysostaphin for 1 h. Afterwards, cells were washed twice and incubated in media with only 5 μg/mL gentamicin. […]
(§3) To quantify the numbers of intracellular bacteria, cells were lysed with Triton X 0,1% and then plated on Todd-Hewitt agar plates in serial dilutions. Plates were incubated overnight at 37°C after which colonies were counted.

[5] = system: primary human macrophages infected with S. aureus; experiment: "peptides during differentiation" model, S. aureus phagocytosis by flow cytometry; assay type: cell-based; conditions: for contribution to phagocytosis: peptides during monocyte differentiation, then infection
Method: as §1, §2
(§4) In all three models described, the same S. aureus infection protocol was applied. An overnight bacterial culture was diluted in α-MEM to reach a final inoculum concentration of 1 x 10^7 CFU/mL, and opsonized in 5% human pooled serum (HPS) for 15 min at 37°C. Opsonized S. aureus was added to the culture at a multiplicity of infection (MOI) = 1, meaning 1 bacterium per eukaryotic cell. To synchronize bacterial uptake, plates were centrifuged for 5 min, 110 x g at RT, and then moved to the incubator at 37°C, 5% CO2 for additional 25 min or 24 h. To study intracellular bacterial survival, after 30 min the cells were washed twice and cultured in media supplemented with 100 μg/mL gentamicin and 20 μg/mL lysostaphin for 1 h. Afterwards, cells were washed twice and incubated in media with only 5 μg/mL gentamicin. This treatment allows only intracellular bacteria to survive, as both gentamicin and lysostaphin are unable to penetrate mammalian cell membranes within short time periods ([Hamza et al., 2013]; [Hamza and Li, 2014]).
(§5) Samples were analyzed by flow cytometry and CFU counting at 30 min and 24 h after infection. Cells for flow cytometry were detached from the culture plate using 1mM DPBS/EDTA in combination with gentle scraping. When macrophages were cultured together with MSCs, samples were first trypsinzed and then scraped in DPBS/EDTA if cells were still attached to the bottom of the culture plate. Cells were moved to a 96-well plate and fixed in paraformaldehyde 4% before analysis. Samples were measured with MACSquant VYB (Miltenyi Biotech) flow cytometer and data analyzed with FlowJo. […] Non-infected samples were used to set GFP fluorescence baseline and define the proportion of infected, GFP-positive cells.

[6] = system: primary human macrophages; experiment: Human cytokine array G5 after LPS and peptide stimulation; assay type: cell-based; conditions: 24 h LPS and peptides, n = 2
Method: Qualitative expression of various cytokines and chemokines was measured in duplicate for selected conditions by human cytokine array G5, according to the manufacturer’s instructions.

[7] = system: intracellular S. aureus in primary human macrophages; experiment: "peptides during infection" model, intracellular S. aureus by CFU counting; assay type: cell-based
Method: as §1, §2, §4, §3

[8] = cited from earlier work; for binding to LPS: "silent killing" mechanism, ref Coorens et al., 2017b
Excerpt: One may argue that the inhibition of LPS-mediated activation of macrophages was not caused by peptides’ direct interaction with the immune cells. It was shown via a mechanism named “silent killing” that CATH-2 and LL-37 bind LPS to inhibit macrophages receptors activation ([Coorens et al., 2017b]).

[9] = system: Staphylococcus aureus strain SH1000; experiment: Peptides direct antibacterial properties, broth micro-dilution, growth by OD 600 nm; assay type: cell-based; conditions: for direct antibacterial effect on S. aureus growth: broth micro-dilution in THB, inoculum 5 x 10^5 CFU/mL, 37°C, OD 600 nm every 5 min for 12 h, concentration range of peptide
Method: All experiments used GFP-labelled Staphylococcus aureus strain SH1000, transformed with a GFP-expressing plasmid pCM29 to constitutively express GFP, as previously described ([Boero et al., 2021]). Bacteria were grown overnight in Todd-Hewitt broth (THB) with 10 μg/mL chloramphenicol to reach stationary phase.
Peptides were diluted at different concentrations in α-MEM supplemented with 10% FBS or in THB when testing their effects on macrophages or bacteria, respectively.
Peptides direct antibacterial properties were determined by broth micro-dilution method. Overnight bacterial suspension was diluted in THB to reach a final inoculum concentration of 5 x 10^5 colony-forming units per mL (CFU/mL). Bacterial suspension and peptides dilutions were mixed in equal parts in a flat-bottom 96-well plate in triplicates in a total volume of 200 μL, and incubated at 37°C. Bacterial growth was monitored by measuring OD (600nm) continuously every 5 minutes for 12 h in Clariostar plate reader (BMG labtech) with gentle shaking before each measurement.

[10] = system: primary human macrophages infected with S. aureus; experiment: "peptides during infection" model, S. aureus phagocytosis by flow cytometry; assay type: cell-based
Method: as §1, §2, §4, §5

[11] = system: primary human macrophages; conditions: ref Pena et al., 2013; cited from earlier work
Excerpt: In addition to TNF-α and IL-10, the peptides affected the expression of several other cytokines involved in immune cells’ activation and recruitment at the inflammation site (Figure 2E).

[12] = peptides 24 h before and during infection, 65 μM IDR-1018, 10 μM CATH-2, 10 μM LL-37, MOI 1, 30 min, n = 9
[13] = peptides in differentiation medium for the first 3 days, MOI 1, 30 min, n = 6

| Substance | inhibition of macrophage LPS-mediated activation [1] | bacterial uptake by macrophages, manual counting of intracellular bacteria [2] | polarization of macrophages toward M1 (CD80) or M2 (CD163) phenotype [3] | macrophage intracellular killing (CFU) [4] | contribution to phagocytosis [5] | effect on S. aureus surviving intracellularly (CFU), 30 min and 24 h ([7]; n = 9) | binding to LPS [8] | direct antibacterial effect on S. aureus growth ([9]; n = 3) | bacterial load, geometric mean of GFP signal, 30 min [10, 12] | other results |
| --- | --- | --- | --- | --- | --- | --- | --- | --- | --- | --- |
| LLGDFFRKSKEKIGKEFKRIVQRIKDFLRNLVPRTES [LL-37, human cathelicidin host defense peptide, InVivogen] | inhibited macrophage lipopolysaccharide-mediated activation | did not provide such effect | kept macrophages in an intermediate state | had no impact | had no impact | no effects were observed | bind LPS | did not show antibacterial effects at any concentration tested |  | expression of MIP-1β, RANTES and MCP-1,2,3 [6]: stronger inhibition of the LPS activation of macrophages |
| RFGRFLRKIRRFRPKVTITIQGSARF-NH2 [CATH-2, chicken cathelicidin host defense peptide, CPC Scientific] | inhibited macrophage lipopolysaccharide-mediated activation | reduced the bacterial uptake by macrophages | kept macrophages in an intermediate state | had no impact | lost its contribution to phagocytosis; also recorded: had no impact |  | bind LPS | had direct antibacterial properties | slightly reduced the bacterial load in macrophages | number of S. aureus surviving intracellularly (CFU), 30 min ([7]; 10 μM CATH-2, 65 μM IDR-1018, 10 μM LL-37, n = 9): significantly reduced; number of S. aureus surviving intracellularly (CFU), 24 h ([7]; gentamicin and lysostaphin after 30 min, n = 9): not statistically significant; also recorded: comparable to the non-stimulated group; concentration arresting S. aureus growth, relative to that needed to inhibit macrophage LPS-mediated activation ([9]; THB, 12 h growth curve, compared with LPS inhibition assay): 10 times lower |
| VRLIVAVRIWRR-NH2 [IDR-1018, bovine-derived cathelicidin host defense peptide, CPC Scientific] | inhibited macrophage lipopolysaccharide-mediated activation | reduced the bacterial uptake by macrophages |  | had no impact |  | no effects were observed |  | did not show antibacterial effects at any concentration tested | markedly decrease phagocytosis | concentration required for inhibition of LPS-mediated activation, compared among peptides ([1]; 10 ng/mL LPS, 24 h, TNF-α and IL-10 ELISA): higher concentrations of IDR-1018 were required; number of internalized bacteria (geometric mean of GFP signal), 30 min [5, 13]: significantly reduced; proportion of infected macrophages, 30 min [5, 13]: significantly reduced; binding affinity to LPS ([8]; ref Wieczorek et al., 2010): did not show significant binding affinity to LPS; fraction of infected cells (macrophages that phagocytosed at least 1 bacterial cell), 30 min [10, 12]: significantly reduced the number of infected cells; amount of phagocytosed S. aureus, 24 h ([10]; peptides during infection model, 24 h after infection, n = 9 (Figure S5)): reduced the amount of phagocytosed S. aureus; concentration from which the start of S. aureus exponential growth is delayed ([9]; THB, 12 h growth curve, OD 600 nm, n = 3): ≥ 65 µM; polarization of macrophages toward M1 or M2 phenotype [11]: did not correlate with the polarization of macrophages toward a clear M1 or M2 phenotype |
